In a melting point compilation (Tetko et al.; mined from patent text by program, amines drawn as free bases though some values may be those of a salt) one finds melting point data, which are given here for 83 compounds.

For `CCOC(OCC)c1cc(NC(c2ccccc2)(c2ccccc2)c2ccccc2)c(F)cn1`, the melting point lay in the range of 125 to 127 °C.

Compound `O=C1C=C(CBr)C(=O)C(CCC2=CC(=O)C=C(CBr)C2=O)=C1` gave a melting point of 146 to 147 °C.

`COC(=O)[C@H]1C[C@@H](NC(=O)OC(C)(C)C)c2c(Cl)cc(Cl)cc2N1` (relative stereo) showed a melting point of 172 to 173 °C.

Turning to `CCOC(=O)c1ccc(NS(C)(=O)=O)c(Oc2ccc(F)cc2F)c1`, the melting point fell in the range of 111 to 113 °C.

The compound `CC(=O)OC(C)c1ccc(-c2ccc(OCc3ccccc3)cc2)cc1` (single isomer, unassigned; (+)) had a melting point of 137 °C.

In turn, `CC(Br)(CBr)CS(=O)(=O)Oc1c(Cl)cccc1Cl` (stereo not drawn) had a melting point of 74 to 76 °C.

On to `COC(=O)CCn1c(=O)n2cc(C)cc2c2ccccc21`, for which the melting point fell in the range of 89 to 91 °C.

`CCOC(=O)c1ccc(-c2ccnc(Nc3cc(OC)c(OC)c(OC)c3)n2)cc1`: the melting point lay in the range of 181 to 182 °C.

As to `CCOC(=O)Cc1cc(OC)c(OC(C)=O)c(C2(OC(C)=O)C(=O)c3ccccc3C2=O)c1`, the melting point was in the range of 102 to 107 °C.

The compound `CC(C)(C=O)N1C(=O)c2ccccc2C1=O` registered a melting point of 80 to 82 °C.

In the case of `CC(=O)c1ccc(N2CCCCC2)c(S(N)(=O)=O)c1`, the melting point lay in the range of 130 to 132 °C.

`O=C(O)C1CC1(C(=O)O)c1ccc([N+](=O)[O-])cc1` (stereo not drawn) registered a melting point of 138 to 144 °C.

In the case of `COc1ccc(CN2C(=O)C(C)(c3ccccc3Cl)c3cc(OC)ccc32)c(OC)c1` (stereo not drawn), the melting point worked out at 133 °C.

The compound `CCCc1c(C(=O)C2CCCC2)c2ccc(C(N)=O)cc2n1Cc1cc2c(cc1Cl)OCO2` gave a melting point of 236 to 237 °C.

Compound `O=C(O)C(O)CSc1ccc(-c2ccccc2)cc1` (stereo not drawn) came in with a melting point of 176 °C.

`CC(CC(=O)NCc1ccccc1)n1c(C(F)(F)F)nc2cc(F)c(-n3c(=O)cc(C(F)(F)F)n(C)c3=O)cc21` (stereo not drawn) registered a melting point of 191 to 193 °C.

`OC(CCc1ccccc1)(c1ccccc1)c1cncn1Cc1ccccc1` (stereo not drawn) displayed a melting point of 196 to 198 °C.

With `CCC(COC(=O)c1ccc(N)c(Cl)c1OC)(c1cccs1)N(C)C` (stereo not drawn), the melting point was 110 to 112 °C.

Take `N#CSc1ccc(N)c(C#N)c1`: the melting point lay in the range of 120 to 121 °C.

In turn, `COc1cc2ccnc(N3CCN(c4ccc5c(c4)CCC(=O)N5)CC3)c2cc1OC` gave a melting point of 235 to 240 °C.

`Cc1ccc(C)c(S(=O)(=O)N(C)CC(O)(CO)c2ccccc2)c1` (stereo not drawn) yielded a melting point of 114 to 115 °C.

For the compound `O=C1C(=O)N(CCCCN2CCN(C(c3ccccc3)c3ccccc3)CC2)c2ccc(F)cc21`, the melting point was 144 °C.

Compound `CC(Sc1nc(N)cc(Cl)n1)c1cc2ccoc2cn1` (stereo not drawn) displayed a melting point of 187 to 188 °C.

`COc1ccc(CC(Cc2ccccc2)C(=O)O)cc1` (stereo not drawn) returned a melting point of 72 to 76.5 °C.

`O=C/C=C/c1csc(Nc2ccccc2)n1`: the melting point is 142 to 143 °C.

In the case of `Oc1cc(-c2ncc(C(F)(F)F)cc2F)c(F)cc1Cl`, the melting point was in the range of 94 to 96 °C.

`CC1(C)C(=NOCc2ccccc2)C(c2ccccc2)=C1c1ccc(S(C)(=O)=O)cc1` showed a melting point of 119 to 121 °C.

As for `O=C(NC(=O)c1ccccc1Cl)Nc1ccc(Cl)c(C(F)(F)F)c1`, the melting point stood at 164 °C.

`OC12CC3CC(C1)CC(NC(c1ccccc1)(c1ccccc1)c1ccccc1)(C3)C2` returned a melting point of 184 to 186 °C.

The compound `COc1ccc(CCCNC(=O)c2coc(-c3ccc(/C(=C\CCCCC(=O)O)c4cccnc4)cc3)n2)cc1` yielded a melting point of 49 to 58 °C.

With `CN1c2ccc(-c3cccc4ccccc34)cc2S(=O)c2cc(-c3cccc4ccccc34)ccc21`, the melting point was 221 to 225 °C.

On to `O=C(c1nccs1)c1cnn2c(-c3cccc(NC(=O)C4CC4)c3)ccnc12`, for which the melting point lay in the range of 226 to 229 °C.

The compound `Cc1ccc(CCCO)c(NCc2ccc3nc(NCCCN4CCOCC4)n(Cc4nc(C)c(C)nc4C)c3c2)c1` had a melting point of 120 °C.

`OCCCCCCCCCCCCCCCCCCCCO` came in with a melting point of 93 °C.

Consider `CNc1cc2c(Nc3ccc(Sc4nccn4C)c(Cl)c3)c(C#N)cnc2cc1N1CCC(N2CCCC2)CC1`, for which the melting point lay in the range of 242 to 250 °C.

Consider `Cc1nc2ccccc2n1Cc1ccc(C(=O)N(C)C2CCNCC2)cc1`, for which the melting point lay within 196 to 198 °C.

For `COc1ccc2c(C(=O)c3ccc(OC4CCCCC4n4ccnc4)cc3)c(-c3ccc(OCCN4CCCC4)cc3)sc2c1` (stereo not drawn), the melting point fell in the range of 68 to 78 °C.

`COc1ccc(S(=O)(=O)Nc2cccc3c2Nc2ccc(F)c(O)c2CO3)cc1`: the melting point fell in the range of 219 to 232 °C.

On to `COc1ccc(-c2cc(=O)c3c(O)cc(O)c(-c4cc(-c5cc(=O)c6c(O)cc(O)cc6o5)ccc4OC)c3o2)cc1`, for which the melting point is 219 to 222 °C.

As to `CCN1C(=O)Cc2cc3c(cc21)C(=O)CO3`, the melting point is 181 to 184 °C.

For `O=C(O)Cc1cc(C(=O)c2cc(Cl)ccc2Cl)ccc1O`, the melting point came to 149 °C.

With `COc1ccc(Br)c(COc2ccc3ccc(OC)cc3c2Cl)c1`, the melting point lay within 126 to 127 °C.

As for `Clc1ccc(Cn2cc(CCN=c3sc4ccccc4s3)c3ccccc32)cc1`, the melting point was 120 to 121 °C.

`CCOCc1nc(C(C)(C)O)c(C(=O)OCOC(=O)C(C)(C)C)n1Cc1ccc(-c2ccccc2-c2nnn[nH]2)cc1` had a melting point of 56 to 61 °C.

`CCOC(=O)C1C(=O)Nc2ccccc2SC1c1ccc(Cl)cc1` (stereo not drawn) returned a melting point of 206 °C.

In turn, `N#Cc1ccc([C@@H]2CN(S(=O)(=O)c3cccc(C(=O)O)c3)C[C@@]23NC(=O)N(c2cc(Cl)cc(Cl)c2)C3=O)cc1` (relative stereo) displayed a melting point of 150 °C.

`CCC[C@](CCO)(CCc1ccccc1)OCOc1ccc(-c2ccccc2)cc1` registered a melting point of 49 to 53 °C.

In the case of `Cc1oc(-c2ccccc2)nc1COc1ccc(CCc2oc(-c3ccccc3)nc2CC(=O)O)cc1`, the melting point lay within 180 to 181 °C.

`Cc1cccc(Cl)c1Nc1ccccc1CC(=O)O` had a melting point of 124 to 125 °C.

In turn, `COC(=O)C[C@@H](SCc1ccccc1)C(=O)O` had a melting point of 91 to 92 °C.

Compound `CSc1sc(-c2nnc(C)o2)c2c1C(=O)CC(C)(C)C2` came in with a melting point of 186 to 188 °C.

As for `O=C(Nc1cccc(O)c1)C(=O)N1CCC(Cc2ccccc2)CC1`, the melting point lay within 158 to 160 °C.

The compound `CCCCNC(=O)c1cc(-c2csc(-c3ccc([N+](=O)[O-])cc3)n2)n(CC2CCCCC2)c1C` showed a melting point of 184 to 187 °C.

`CCOC(=O)c1cc(NCc2ccccc2)c(Nc2cccc(OC)c2)c(S(N)(=O)=O)c1` displayed a melting point of 149 to 152 °C.

For `CC(O)=C(C#N)C(=O)Nc1ccccc1`, the melting point is 134 to 135 °C.

`CC(C)(C)SCC1Cn2cc(C(=O)NCc3ccc(Cl)cc3)c(=O)c3cc(CN4CCOCC4)cc(c32)O1` (stereo not drawn) showed a melting point of 198 to 201 °C.

Consider `Nc1cc2c(Nc3ccc(Br)c(Cl)c3)ncnc2cn1`, for which the melting point fell in the range of 272 to 275 °C.

`O=C(CC(F)(F)F)NC[C@H]1CN(c2ccc3c(c2)CCCc2cn[nH]c2-3)C(=O)O1` showed a melting point of 243 to 245 °C.

Compound `Cc1cc(C(O)(c2ccc(OC(F)(F)F)cc2)C(F)(F)F)ccc1N` (stereo not drawn) returned a melting point of 127 to 128 °C.

Regarding `CC1=Nc2ccccc2CN1C1CCC(=O)NC1=O` (stereo not drawn), the melting point was in the range of 78 to 85 °C.

As for `N#CCCOc1ccccc1OCCC#N`, the melting point fell in the range of 124 to 125 °C.

Take `CCc1ccc2c(c1)C=Cc1oc(C)nc1C2c1cn(Cc2cccc(C(=O)Nc3n[nH]c(C(F)(F)F)n3)c2)c(=O)[nH]c1=S` (stereo not drawn): the melting point is 142 to 145 °C.

With `COc1ccc(C(=O)CC(C)C)c(Cl)c1Cl`, the melting point is 49 to 54 °C.

Turning to `O=C1c2ccc(Cl)cc2C(=O)N1CC(=O)N1c2ccccc2N(Cc2ccccc2)C(=O)[C@H]2CCC[C@H]21` (relative stereo), the melting point was 237 to 238 °C.

As to `O=C(O)c1ccc(-c2ccc(Cl)cc2)cn1`, the melting point is more than 260 °C.

On to `COc1cc(NC(=O)Nc2c(-c3ccccc3Cl)c3cc(C)c(C)cc3n(C)c2=O)cc(OC)c1OC(C)=O`, for which the melting point fell in the range of 233 to 234 °C.

On to `Nc1ccc(SCC2CC2)cc1[N+](=O)[O-]`, for which the melting point fell in the range of 45 to 47 °C.

As to `COc1ccc2cccc(C(CO)CNC(=O)C3CC3)c2c1` (stereo not drawn), the melting point lay within 153 to 154 °C.

`Nc1cc(C(F)(F)F)on1` had a melting point of 44 to 45 °C.

The compound `O=C(c1ccccc1)c1ccc(SCCO)cc1` displayed a melting point of 49 to 51 °C.

For `Cn1cc(C(=O)NCc2ccc(Cl)cc2)c(=O)c2cc(CN3CCOCC3)cc(C#CCn3ccnc3)c21`, the melting point is 178 to 180 °C.

For the compound `O=Cc1cncc2ncc(-c3ccccc3)cc12`, the melting point worked out at 148 °C.

Compound `CC(=O)SCC(Cc1ccc(-c2ccccc2)cc1)C(=O)N[C@@H](CSCc1ccc(C)cc1)C(=O)O` (stereo partly drawn) registered a melting point of 131 to 135 °C.

In the case of `CCOC(=O)c1cn(NCC=O)c2cc(-n3cccc3)c(F)cc2c1=O`, the melting point was 194 to 198 °C.

Turning to `CCOC(=O)C1=Cc2cc(OCC(=O)c3ccc(Br)cc3)ccc2OC1C(F)(F)F` (stereo not drawn), the melting point was 130 to 132 °C.

The compound `CCCc1c(OCCCCCCc2ccc(C(C)(C)C)c(OC)c2OC)ccc(C(=O)OCc2ccccc2)c1O` had a melting point of 106 to 108 °C.

In turn, `COc1ccc(COC(=O)c2cc([N+](=O)[O-])c3ccccc3c2O)cc1` showed a melting point of 163 to 164 °C.

Turning to `C=CC1CN(c2ncc(C(=O)N(C)c3cccc(C(F)(F)F)c3)c(N)n2)C(=O)N1` (stereo not drawn), the melting point lay within 203 to 204 °C.

On to `CC(=O)OCCOCn1cc(C)c(=O)[nH]c1=O`, for which the melting point is 105 to 107 °C.

For the compound `O=C1NC(=O)C(=Cc2ccc(OCCCN3Cc4ccccc4C3=O)cc2)S1`, the melting point lay within 260 to 263 °C.

For the compound `CCCC(=O)Nc1nn(COCC[Si](C)(C)C)c2cc(-c3ccc(SC)cc3)ccc12`, the melting point was 225 °C.

Take `O=C(Nc1ccc(Cl)cn1)c1cc(Cl)ccc1NCC1CCN(C2CCCC2)CC1`: the melting point lay in the range of 170 to 171 °C.

For the compound `COC(=O)CC1CCc2cc(C(=O)c3ccccc3)c(O)cc21` (stereo not drawn), the melting point is 148 to 150 °C.
